Data on 13 compounds can be found in PubChem BioAssay (NCI).

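The compound was tested at five concentrations on cells cultured in 96-well plates, with a 48-hour exposure period. The concentration for 50% growth inhibition is given as GI50. TGI denotes the concentration required for complete inhibition of growth.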 Some results are limits rather than exact numbers.

Test systems include SN12C renal; HOP-92 NSCLC; RPMI-8226 leukemia; KM12 colon; IGROV1 ovarian; NCI-H460 lung; UO-31 renal; SF-539 CNS; SR leukemia.
What all share (test): inhibition of tumour cell growth, NCI panel, 48 h

`CC(=O)Nc1ccc(/C=C2\N=C(c3ccccc3)OC2=O)cc1`: the TGI is > 100 µM in the assay with SN12C renal; > 100 µM with HOP-92 NSCLC; > 100 µM in the assay with RPMI-8226 leukemia; > 100 µM in the assay on KM12 colon; > 31.6 µM with IGROV1 ovarian; > 100 µM with NCI-H460 lung. Further, the TGI in the assay with UO-31 renal was > 100 µM.

For `COc1ccc2c(c1)[n+](=O)c(C(=O)C/C(=N/NC(=O)C[N+](C)(C)C)C(=O)Nc1cccc(C)c1C)c(C)n2O`, the TGI in the assay with SN12C renal, in the assay with HOP-92 NSCLC, in the assay with SF-539 CNS, in the assay on RPMI-8226 leukemia, in the assay on KM12 colon and in the assay on IGROV1 ovarian was > 100 µM each time. The TGI in the assay on NCI-H460 lung and with UO-31 renal was > 100 µM in each case.

On to `CN(C)C(=O)NC(=S)N(C)C`, for which the TGI with SN12C renal, with HOP-92 NSCLC, in the assay with SF-539 CNS, with RPMI-8226 leukemia, with KM12 colon and with IGROV1 ovarian was > 100 µM throughout. In addition, the TGI in the assay with NCI-H460 lung, with UO-31 renal and in the assay with SR leukemia was > 100 µM each time.

In the case of `COC(=O)C1C(=O)O[C@@H](c2ccc(OC)c(OC)c2OC)C1C(=O)OC` (mixture of isomers), the TGI in the assay with SN12C renal, in the assay on HOP-92 NSCLC, in the assay on SF-539 CNS, in the assay on RPMI-8226 leukemia, in the assay on KM12 colon and with IGROV1 ovarian was > 100 µM each time. Also, the TGI in the assay with NCI-H460 lung, in the assay on UO-31 renal and in the assay with SR leukemia was > 100 µM throughout.

For the compound `COC(=O)C1(C)CC2C(C)(CCC3(C)C4=CC=C5C(=CC(=O)C(O)=C5C)C4(C)CCC23C)CC1O` (stereo not given), the TGI with SN12C renal was found to be 3.33 µM; with HOP-92 NSCLC, 2.82 µM; with SF-539 CNS, 3.3 µM; in the assay on KM12 colon, 4.09 µM; in the assay with IGROV1 ovarian, 1.18 µM; in the assay on UO-31 renal it was 3.19 µM. Moreover, the TGI with SR leukemia was found to be 0.575 µM.

With `CC[C@]1(O)CC2CN(CCc3c([nH]c4ccccc34)[C@@](C(=O)OC)(c3cc4c(cc3OC)N(C=O)[C@H]3[C@@](O)(C(=O)OC)[C@H](OC(C)=O)[C@]5(CC)C=CCN6CC[C@]43[C@@H]65)C2)C1` (stereo not given in full), the GI50 in the assay with SN12C renal was < 0.005 µM; in the assay with SF-539 CNS, < 0.005 µM; in the assay on RPMI-8226 leukemia, < 0.005 µM; with KM12 colon it was < 0.005 µM; with IGROV1 ovarian, 0.0334 µM; in the assay on NCI-H460 lung, < 0.005 µM. Also, the GI50 is 0.519 µM in the assay with UO-31 renal and < 0.005 µM in the assay with SR leukemia. The TGI with SN12C renal was > 50 µM; in the assay with HOP-92 NSCLC it was > 50 µM; with SF-539 CNS it was > 17.9 µM; with RPMI-8226 leukemia, 17.8 µM; in the assay on KM12 colon, > 50 µM; in the assay with IGROV1 ovarian it was > 50 µM. In addition, the TGI in the assay with NCI-H460 lung, with UO-31 renal and in the assay with SR leukemia was > 50 µM each time.

As to `O=C(N/C(=C\c1ccccc1Cl)c1nc2ccccc2[nH]1)c1ccccc1`, the TGI is 61.5 µM with SN12C renal; 34.1 µM with HOP-92 NSCLC; > 100 µM in the assay on SF-539 CNS; > 100 µM in the assay on KM12 colon; > 100 µM with IGROV1 ovarian; 44.8 µM in the assay on UO-31 renal. In the assay on SR leukemia, this compound gave a TGI of 79.3 µM.

Regarding `c1ccc(-c2n(Cc3ccc4ccccc4c3)cc[n+]2Cc2ccc3ccccc3c2)cc1`, the GI50 in the assay on SN12C renal was 1.26 µM; in the assay on SF-539 CNS, 1.45 µM; with IGROV1 ovarian it was 0.651 µM; in the assay on UO-31 renal, 1.47 µM; in the assay on SR leukemia it was 0.972 µM. The TGI was 2.64 µM in the assay on SN12C renal; 2.81 µM in the assay on SF-539 CNS; 2.13 µM with IGROV1 ovarian; 2.87 µM in the assay with UO-31 renal; 3.4 µM in the assay on SR leukemia.

As for `OCc1ccc(N2CCc3cc(F)ccc3C2)cc1Cl`, the GI50 with SN12C renal was 10.9 µM; in the assay on HOP-92 NSCLC, 0.199 µM; with SF-539 CNS it was 16.1 µM; in the assay on RPMI-8226 leukemia, 0.244 µM; with KM12 colon, 13.2 µM; in the assay with IGROV1 ovarian it was 0.017 µM. Moreover, the values for the GI50 in the assay on NCI-H460 lung, with UO-31 renal and with SR leukemia were 0.0583 µM, 1.7 µM and 3.29 µM, respectively. The TGI in the assay with SN12C renal was 23.2 µM; in the assay on HOP-92 NSCLC, 6.36 µM; in the assay with SF-539 CNS it was 30.2 µM; in the assay on RPMI-8226 leukemia it was 22.2 µM; in the assay with KM12 colon, 27.3 µM; with IGROV1 ovarian it was 0.0941 µM. Moreover, the TGI with NCI-H460 lung worked out at 1.84 µM; in the assay with UO-31 renal, 18.4 µM; in the assay on SR leukemia, 24 µM.

In the case of `CC(=O)[CH-]C(=O)c1ccccc1.CC(=O)[CH-]C(=O)c1ccccc1.CC(C)CCC[C@H](C)C1CCC2[C@@H]3CC=C4C[C@@H]([O-])CC[C@]4(C)C3CC[C@@]21C.CC(C)CCC[C@H](C)C1CCC2[C@@H]3CC=C4C[C@@H]([O-])CC[C@]4(C)C3CC[C@@]21C.Cl.[Ti+4]` (stereo not given in full), the GI50 in the assay with SN12C renal, with SF-539 CNS, in the assay on RPMI-8226 leukemia, in the assay with KM12 colon, with IGROV1 ovarian and in the assay with NCI-H460 lung was > 25 µM throughout. In addition, in the assay on UO-31 renal, the GI50 was > 25 µM. Besides, the TGI with SN12C renal, in the assay with SF-539 CNS, with RPMI-8226 leukemia, with KM12 colon, with IGROV1 ovarian and in the assay with NCI-H460 lung was > 25 µM in each case. Further, the TGI in the assay with UO-31 renal was > 25 µM.

Consider `Cc1cc(=O)n(-c2c(C)cccc2Cl)c(/C=C(\O)c2ccncc2)n1`, for which the TGI with SN12C renal, in the assay on HOP-92 NSCLC, with SF-539 CNS, in the assay on KM12 colon, in the assay with IGROV1 ovarian and in the assay on NCI-H460 lung was > 100 µM throughout. The TGI with UO-31 renal is > 100 µM.

Consider `CC(=O)OCC1OC(OCc2ccccc2)C(Br)C(OC(C)=O)C1OC(C)=O` (stereo not given), for which the TGI in the assay on SN12C renal, with HOP-92 NSCLC, in the assay with SF-539 CNS, in the assay with RPMI-8226 leukemia, in the assay on KM12 colon and in the assay with IGROV1 ovarian was > 100 µM each time. The TGI with NCI-H460 lung and in the assay with SR leukemia was > 100 µM each time.

On to `CC1CCC(=O)C(C(O)CC2CC(=O)N(c3ccccc3)C(=O)C2)C1` (stereo not given), for which the TGI in the assay on SN12C renal, in the assay on HOP-92 NSCLC, with SF-539 CNS, in the assay with RPMI-8226 leukemia, in the assay on KM12 colon and with IGROV1 ovarian was > 100 µM in each case. Besides, the TGI in the assay on NCI-H460 lung, with UO-31 renal and in the assay with SR leukemia was > 100 µM each time.
